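Grown in 96-well plates, cells were treated for 48 hours with each compound at five concentrations. Insufficient inhibition: endpoint recorded as highest concentration tested. GI50: concentration for 50% inhibition of growth.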 Active and inactive are the calls of the source. No stated cut-off is given here; in the data, active = GI50 up to about 1.1 µM and inactive = higher.
Tests used:
Experiment in all cases: inhibition of tumour cell growth, NCI panel, 48 h
[1] = test system: UACC-62
[2] = test system: K562
[3] = test system: U-251
[4] = test system: CCRF-CEM
[5] = test system: DMS-273
[6] = test system: ACHN
[7] = test system: NCI-H23
[8] = test system: HOP-92
[9] = test system: IGROV-1
[10] = test system: KM-20L2
[11] = test system: SF-539
[12] = test system: A498
[13] = test system: XF498
[14] = test system: SK-OV-3
[15] = test system: SNB-19
[16] = test system: HT-29
[17] = test system: TK-10
[18] = test system: OVCAR-3
[19] = test system: RXF 631
[20] = test system: HCT-116
[21] = test system: OVCAR-4
[22] = test system: NCI-H226
[23] = test system: HOP-18
[24] = test system: 786-0
[25] = test system: M14
[26] = test system: A549
[27] = test system: EKVX
[28] = test system: KM12
[29] = test system: UO-31
[30] = test system: SF-268
[31] = test system: SNB-78
[32] = test system: OVCAR-8
[33] = test system: NCI-H460
[34] = test system: DMS-114
[35] = test system: HOP-62
[36] = test system: LOX IMVI
[37] = test system: HCT-15
[38] = test system: UACC-257
[39] = test system: HL-60
[40] = test system: SK-MEL-28
[41] = test system: RPMI-8226
[42] = test system: HCC 2998
[43] = test system: OVCAR-5
[44] = test system: LXFL 529
[45] = test system: COLO 205
[46] = test system: DLD-1
[47] = test system: SW-620
[48] = test system: Malme-3M
[49] = test system: MOLT-4
[50] = test system: NCI-H522
[51] = test system: SK-MEL-2
[52] = test system: CAKI-1
[53] = test system: SN12C
[54] = test system: SF-295
[55] = test system: SK-MEL-5
[56] = test system: SNB-75
[57] = test system: RXF 393
[58] = test system: SR
[59] = test system: M19-MEL

## COC(=O)NN1C(C)=C(C(=O)OC)C2(CCOC2=O)C1(C)O (stereo not given)
[1]
  GI50: > 100 µM (inactive)
[2]
  GI50: > 100 µM (inactive)
[3]
  GI50: > 100 µM (inactive)
[4]
  GI50: > 100 µM (inactive)
[5]
  GI50: > 100 µM (inactive)
[6]
  GI50: > 100 µM (inactive)
[7]
  GI50: > 100 µM (inactive)
[8]
  GI50: > 100 µM (inactive)
[9]
  GI50: > 100 µM (inactive)
[10]
  GI50: > 100 µM (inactive)
[11]
  GI50: > 100 µM (inactive)
[12]
  GI50: > 100 µM (inactive)
[13]
  GI50: > 100 µM (inactive)
[14]
  GI50: > 100 µM (inactive)
[15]
  GI50: > 100 µM (inactive)
[16]
  GI50: > 100 µM (inactive)
[17]
  GI50: > 100 µM (inactive)
[18]
  GI50: > 100 µM (inactive)
[19]
  GI50: > 100 µM (inactive)
[20]
  GI50: > 100 µM (inactive)
[21]
  GI50: > 100 µM (inactive)
[22]
  GI50: > 100 µM (inactive)
[23]
  GI50: > 100 µM (inactive)
[24]
  GI50: > 100 µM (inactive)
[25]
  GI50: > 100 µM (inactive)
[26]
  GI50: > 100 µM (inactive)
[27]
  GI50: > 100 µM (inactive)
[28]
  GI50: > 100 µM (inactive)
[29]
  GI50: > 100 µM (inactive)
[30]
  GI50: > 100 µM (inactive)
[31]
  GI50: > 100 µM (inactive)
[32]
  GI50: > 100 µM (inactive)
[33]
  GI50: > 100 µM (inactive)
[34]
  GI50: > 100 µM (inactive)
[35]
  GI50: > 100 µM (inactive)
[36]
  GI50: > 100 µM (inactive)
[37]
  GI50: > 100 µM
[38]
  GI50: > 100 µM (inactive)
[39]
  GI50: > 100 µM (inactive)
[40]
  GI50: > 100 µM (inactive)
[41]
  GI50: > 100 µM (inactive)
[42]
  GI50: > 100 µM (inactive)
[43]
  GI50: > 100 µM (inactive)
[44]
  GI50: > 100 µM (inactive)
[45]
  GI50: > 100 µM (inactive)
[46]
  GI50: > 100 µM (inactive)
[47]
  GI50: > 100 µM (inactive)
[48]
  GI50: > 100 µM (inactive)
[49]
  GI50: > 100 µM (inactive)
[50]
  GI50: > 100 µM (inactive)
[51]
  GI50: > 100 µM (inactive)
[52]
  GI50: > 100 µM (inactive)
[53]
  GI50: > 100 µM (inactive)
[54]
  GI50: > 100 µM (inactive)

## C[Si](C)(C)CN1C(=O)c2ccccc2C1(O)c1ccccc1 (stereo not given)
[1]
  GI50: 62.7 µM (inactive)
[2]
  GI50: 40.1 µM (inactive)
[3]
  GI50: > 100 µM (inactive)
[4]
  GI50: 66.4 µM (inactive)
[5]
  GI50: 56.6 µM (inactive)
[6]
  GI50: 56.1 µM (inactive)
[7]
  GI50: 50.6 µM (inactive)
[8]
  GI50: 44.6 µM (inactive)
[9]
  GI50: 99.5 µM (inactive)
[10]
  GI50: > 100 µM (inactive)
[11]
  GI50: > 100 µM (inactive)
[12]
  GI50: > 100 µM (inactive)
[13]
  GI50: 73.8 µM (inactive)
[15]
  GI50: > 100 µM (inactive)
[16]
  GI50: 87.9 µM (inactive)
[17]
  GI50: > 100 µM (inactive)
[18]
  GI50: > 86.3 µM (inactive)
[19]
  GI50: 88.9 µM (inactive)
[20]
  GI50: 48 µM (inactive)
[21]
  GI50: 70.6 µM (inactive)
[22]
  GI50: > 100 µM (inactive)
[23]
  GI50: > 100 µM (inactive)
[24]
  GI50: > 100 µM (inactive)
[25]
  GI50: > 100 µM (inactive)
[26]
  GI50: 40.4 µM (inactive)
[27]
  GI50: 91 µM (inactive)
[28]
  GI50: 59.7 µM (inactive)
[29]
  GI50: 30.5 µM (inactive)
[30]
  GI50: 98.4 µM (inactive)
[31]
  GI50: > 83.9 µM (inactive)
[32]
  GI50: > 100 µM (inactive)
[55]
  GI50: 46.6 µM (inactive)
[33]
  GI50: 65.6 µM (inactive)
[34]
  GI50: 41.6 µM (inactive)
[56]
  GI50: 84.7 µM (inactive)
[35]
  GI50: > 100 µM (inactive)
[36]
  GI50: 49.4 µM (inactive)
[37]
  GI50: > 68.4 µM
[38]
  GI50: 57.3 µM (inactive)
[39]
  GI50: 40.7 µM (inactive)
[40]
  GI50: > 100 µM (inactive)
[57]
  GI50: 75.2 µM (inactive)
[42]
  GI50: > 100 µM (inactive)
[43]
  GI50: > 100 µM (inactive)
[44]
  GI50: 93.1 µM (inactive)
[45]
  GI50: 92.7 µM (inactive)
[58]
  GI50: 83.6 µM (inactive)
[46]
  GI50: > 100 µM (inactive)
[47]
  GI50: > 100 µM (inactive)
[48]
  GI50: > 100 µM (inactive)
[49]
  GI50: 24.2 µM (inactive)
[50]
  GI50: 33.5 µM (inactive)
[51]
  GI50: 97.1 µM (inactive)
[52]
  GI50: 46.1 µM (inactive)
[53]
  GI50: > 89.3 µM (inactive)
[54]
  GI50: 64.4 µM (inactive)

## COc1cc2c(cc1OC)C(=O)Cc1ccc(OC)c(OC)c1CN(C)CC2
[1]
  GI50: > 100 µM (inactive)
[2]
  GI50: > 100 µM (inactive)
[3]
  GI50: > 100 µM (inactive)
[4]
  GI50: > 100 µM (inactive)
[5]
  GI50: > 100 µM (inactive)
[6]
  GI50: 27.7 µM (inactive)
[7]
  GI50: > 100 µM (inactive)
[8]
  GI50: 20.5 µM (inactive)
[9]
  GI50: > 100 µM (inactive)
[10]
  GI50: > 100 µM (inactive)
[11]
  GI50: > 100 µM (inactive)
[12]
  GI50: 11.9 µM (inactive)
[13]
  GI50: 24.5 µM (inactive)
[14]
  GI50: > 100 µM (inactive)
[15]
  GI50: > 100 µM (inactive)
[16]
  GI50: > 100 µM (inactive)
[17]
  GI50: > 100 µM (inactive)
[18]
  GI50: > 100 µM (inactive)
[19]
  GI50: > 100 µM (inactive)
[20]
  GI50: > 100 µM (inactive)
[21]
  GI50: > 100 µM (inactive)
[22]
  GI50: > 100 µM (inactive)
[23]
  GI50: 32.4 µM (inactive)
[24]
  GI50: > 100 µM (inactive)
[25]
  GI50: > 100 µM (inactive)
[26]
  GI50: > 100 µM (inactive)
[27]
  GI50: > 100 µM (inactive)
[59]
  GI50: > 100 µM (inactive)
[28]
  GI50: > 100 µM (inactive)
[29]
  GI50: > 100 µM (inactive)
[30]
  GI50: > 100 µM (inactive)
[31]
  GI50: > 100 µM (inactive)
[32]
  GI50: > 100 µM (inactive)
[55]
  GI50: > 100 µM (inactive)
[33]
  GI50: 15.6 µM (inactive)
[34]
  GI50: > 100 µM (inactive)
[56]
  GI50: > 100 µM (inactive)
[35]
  GI50: > 100 µM (inactive)
[36]
  GI50: > 100 µM (inactive)
[37]
  GI50: > 100 µM
[38]
  GI50: > 100 µM (inactive)
[40]
  GI50: > 100 µM (inactive)
[41]
  GI50: > 100 µM (inactive)
[42]
  GI50: > 100 µM (inactive)
[43]
  GI50: > 100 µM (inactive)
[44]
  GI50: > 100 µM (inactive)
[45]
  GI50: > 100 µM (inactive)
[46]
  GI50: > 100 µM (inactive)
[47]
  GI50: > 100 µM (inactive)
[48]
  GI50: > 100 µM (inactive)
[49]
  GI50: > 100 µM (inactive)
[50]
  GI50: > 100 µM (inactive)
[51]
  GI50: > 100 µM (inactive)
[52]
  GI50: > 100 µM (inactive)
[53]
  GI50: > 100 µM (inactive)

— ChEMBL document CHEMBL1201862, “PubChem BioAssay data set” (2004)
